Key:
[1] = tested on: HeLa cells, integrated with the NHEJ reporter; assay: NHEJ reporter assay; assay type: cell-based, human; conditions: same condition as HR assay; FIG. 8B
Experimental: FIG. 8 is a composite figure showing that C527 inhibits homologous recombination repair. […] U2OS-DRGFP cells were transfected with I-SCE-I and then exposed to C527 at the indicated concentration for 24 h. Cells were then subjected to flow cytometry analysis. The percentage of GFP positive cells was normalized by solvent vehicle treated group. […] HeLa cells, integrated with the NHEJ reporter, were treated with C527 and analyzed as described in (FIG. 8A). […] HeLa cells were pre-treated with DMSO or C527 at the indicated concentration and then exposed to camptothecin (CPT) for 1 hr. RAD51 foci were detected using immunofluorescence.
Disruption of FANCD2 monoubiquitination or of USP1 activity (Oestergaard V H, Langevin F, Kuiken H J, et al. Deubiquitination of FANCD2 is required for DNA crosslink repair. Mol Cell. 2007; 28:798-809; Kim J M, Parmar K, Huang M, et al. Inactivation of murine Usp1 results in genomic instability and a Fanconi anemia phenotype. Dev Cell. 2009; 16:314-320) results in decreased HR. A gene conversion assay was used to examine the effect of C527 on cellular HR activity (FIG. 8A).

[2] = tested on: endogenous DUB enzyme complexes; assay: HA-Ub-VS labelling of other endogenous DUBs in HeLa cell extracts; assay type: biochemical, human; conditions: HeLa cell extracts pretreated 4 h (Ub-Ald 5 μM), then Ub-VS 40 min at 30° C.; FIG. 7
Experimental: FIG. 7 is a composite figure depicting preferential inhibition of the activity of native USP1/UAF1 by C527. HeLa cell extracts were incubated with ubiquitin-aldehyde (Ub-Ald, 5 μM) or C527 at indicated concentrations for 4 h, followed by the addition of 0.5 μM Ub-Vs for 40 min. The reaction was split into two aliquots and subjected to immunoblotting for HA or USP1, respectively.
The ability of C527 to inhibit the deubiquitinating activity of native USP1 complexes derived from human cells was determined next (FIG. 7). For this purpose, the HA-tagged ubiquitin-VS, an affinity reagent known to covalently modify and trap active DUB enzymes in cell extracts was used. Cell extracts prepared from HeLa cells were pretreated with increasing concentrations of C527 for 4 h, followed by the incubation with Ub-VS for 40 min at 30° C. The enzymatic activity of endogenous DUBs was indicated by the conjugation of Ub-VS, detected as HA-labeling (see FIG. 7, high molecular weight bands). […] Ub-VS conjugation was inhibited by ubiquitin-aldehyde (Ub-Ald), a non-specific inhibitor of DUBs (lane 3).

HeLa cells = assay: sensitization to DNA damaging agents, MTT assay; assay type: cell-based, human; conditions: 1 μM C527 for 24 h, FIG. 10
Experimental: FIG. 10 is a composite figure showing that C527 sensitizes tumor cells to DNA damaging agents. HeLa cells were plated in 96-well plates and treated with 1 μM C527 for 24 h, followed by treatment with mitomycin C (MMC, 0.25 μM), camptothcin (CPT, 0.1 μM), or etoposide for 4 more days. Cell viability was assessed using the MTT assay.
HeLa cells were seeded in 96-well plate and treated with C527 for 4 more days. 20 μL MTT (Sigma) at 5 mg/mL was added to each well and cells were left at 37° C. for incubation. 4 h later, the metabolic product was dissolved in a solution containing 10% SDS, 5% isopropanol and 0.01 mol/L HCl. Optical density at 565 nm was measured in an automated plate reader. The percentage of cell survival was determined by normalizing to solvent vehicle treated cells.
Inhibitors of the FA-BRCA pathway are known to sensitize tumor cells to the cytotoxic effects of ICL-[…] agents. Specifically, it is known that proteasome inhibitors block FANCD2 monoubiquitination, perhaps through depletion of intracellular pools of free ubiquitin, resulting in inhibition of HR repair (Chirnomas D, Taniguchi T, de la Vega M, et al. Chemosensitization to cisplatin by inhibitors of the Fanconi anemia/BRCA pathway. Mol Cancer Ther. 2006; 5:952-961). The ability of C527 to sensitize pretreated human cells to MMC or to other agents was tested.

USP12/UAF1/WDR20 complex = target: T1, USP12/UAF1/WDR20 complex (Homo sapiens, UniProt O75317); assay: ubiquitin-AMC assay with USP12/UAF1/WDR20; assay type: biochemical
T1 construct: made in house; host or cells: Sf9
T1 sequence (O75317 whole entry, species assumed): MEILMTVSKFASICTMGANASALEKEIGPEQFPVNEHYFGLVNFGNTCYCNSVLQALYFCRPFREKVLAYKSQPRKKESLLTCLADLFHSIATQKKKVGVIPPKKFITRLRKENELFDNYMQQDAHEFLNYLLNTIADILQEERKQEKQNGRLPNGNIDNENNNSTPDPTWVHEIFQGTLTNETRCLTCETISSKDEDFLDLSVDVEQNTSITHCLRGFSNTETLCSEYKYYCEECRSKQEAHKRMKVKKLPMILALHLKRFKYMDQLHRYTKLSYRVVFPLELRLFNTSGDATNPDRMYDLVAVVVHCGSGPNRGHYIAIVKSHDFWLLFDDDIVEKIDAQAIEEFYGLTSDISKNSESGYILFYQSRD
T1 sequence (Q8TAF3 whole entry partner, species assumed): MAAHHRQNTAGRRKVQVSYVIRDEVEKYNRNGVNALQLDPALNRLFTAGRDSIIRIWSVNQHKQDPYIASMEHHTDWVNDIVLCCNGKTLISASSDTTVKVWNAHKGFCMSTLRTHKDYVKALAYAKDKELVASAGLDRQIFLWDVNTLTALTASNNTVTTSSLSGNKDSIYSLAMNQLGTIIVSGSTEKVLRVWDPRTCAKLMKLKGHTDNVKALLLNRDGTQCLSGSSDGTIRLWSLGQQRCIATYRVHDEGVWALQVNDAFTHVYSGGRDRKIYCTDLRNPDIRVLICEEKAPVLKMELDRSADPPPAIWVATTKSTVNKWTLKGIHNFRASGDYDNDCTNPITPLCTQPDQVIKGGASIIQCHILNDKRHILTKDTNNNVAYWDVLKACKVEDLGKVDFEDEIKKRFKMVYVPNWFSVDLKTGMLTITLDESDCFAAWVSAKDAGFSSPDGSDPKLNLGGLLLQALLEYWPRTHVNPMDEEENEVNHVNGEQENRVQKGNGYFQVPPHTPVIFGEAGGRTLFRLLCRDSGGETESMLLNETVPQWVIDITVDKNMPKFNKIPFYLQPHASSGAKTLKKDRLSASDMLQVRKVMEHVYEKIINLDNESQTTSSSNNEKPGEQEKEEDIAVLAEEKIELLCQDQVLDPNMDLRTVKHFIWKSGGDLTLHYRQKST
T1 sequence (Q8TBZ3 whole entry partner, species assumed): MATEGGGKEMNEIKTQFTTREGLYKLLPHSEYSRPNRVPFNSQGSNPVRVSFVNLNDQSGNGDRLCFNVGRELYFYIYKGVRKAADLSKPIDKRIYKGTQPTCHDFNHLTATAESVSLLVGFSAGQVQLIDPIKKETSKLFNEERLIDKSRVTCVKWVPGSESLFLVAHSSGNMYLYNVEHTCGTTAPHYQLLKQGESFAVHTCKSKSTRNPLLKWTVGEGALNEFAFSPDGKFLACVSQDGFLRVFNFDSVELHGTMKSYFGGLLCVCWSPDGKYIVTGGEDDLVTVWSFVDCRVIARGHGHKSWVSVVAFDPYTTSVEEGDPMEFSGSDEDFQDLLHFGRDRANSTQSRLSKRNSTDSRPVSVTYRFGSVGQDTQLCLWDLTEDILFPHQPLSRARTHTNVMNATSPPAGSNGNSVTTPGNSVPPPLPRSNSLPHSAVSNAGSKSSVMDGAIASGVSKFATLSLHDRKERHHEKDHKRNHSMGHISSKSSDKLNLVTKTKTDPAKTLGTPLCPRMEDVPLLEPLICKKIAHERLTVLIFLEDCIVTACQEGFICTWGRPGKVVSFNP
Experimental: FIG. 6 is a composite figure showing that C527 is a pan-deubiqutinating enzyme inhibitor […]. Ubiquitin-AMC assay was performed using purified (FIG. 6A) USP12/UAF1/WDR20 (FIG. 6B) USP5 and (FIG. 6C) UCH-L1. Enzymes were incubated with DMSO or C527 at indicated concentrations for 3 h, followed by the addition of Ub-AMC at 0.5 μM final concentration. The fluorescence at […] was measured to indicate the enzymatic activity. FIG. 6D is a summary showing the IC50 of C527 against the indicated enzymes.
(§1) The in vitro enzymatic assays were performed using purified proteins from Sf9 cells as described previously (Cohn et al.). The assays using ubiquitin-AMC (Ub-7-amido-4-methylcoumarin; Boston Biochem) as substrate was carried out in a reaction buffer containing 20 mM HEPES-KOH (pH 7.8), 20 mM NaCl, 0.1 mg/ml ovalbumin, 0.5 mM EDTA and 10 mM dithiothreitol. The fluorescence was measured by FluoStar Galaxy Fluorometer (BMG Labtech). For the Ub-vinylsulfone (VS) assay, the proteins were incubated with Ub-VS at 0.5 μM final concentration for 1 h at 30° C., followed by the immunoblotting analysis.
To examine the specificity of C527 in USP1/UAF1 inhibition, its ability to inhibit other DUB enzymes in vitro was examined. […] Moreover, the active complex of USP12 contains an additional WD40 subunit (WDR20). […]

UCH-L3 = target: T2, UCH-L3 (Homo sapiens, UniProt P15374); assay: deubiquitinating enzyme assay with UCH-L3; assay type: biochemical; conditions: in vitro
T2 sequence (P15374 1-230): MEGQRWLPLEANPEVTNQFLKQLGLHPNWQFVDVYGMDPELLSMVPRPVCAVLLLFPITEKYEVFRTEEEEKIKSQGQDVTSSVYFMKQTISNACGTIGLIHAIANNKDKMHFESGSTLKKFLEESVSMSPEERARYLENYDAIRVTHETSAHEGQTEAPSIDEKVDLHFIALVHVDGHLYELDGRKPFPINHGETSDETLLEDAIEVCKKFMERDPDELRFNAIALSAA
Experimental: as §1
To examine the specificity of C527 in USP1/UAF1 inhibition, its ability to inhibit other DUB enzymes in vitro was examined. […] Moreover, the active complex of USP12 contains an additional WD40 subunit (WDR20). […] UCH-L1 and UCH-L3 are members of a different subclass of deubiquitinating enzymes, referred to as the ubiquitin-carboxy terminal hydrolases (Mermerian A H, Case A, Stein R L, Cuny G D. Structure-activity relationship, kinetic mechanism, and selectivity for a new class of ubiquitin C-terminal hydrolase-L1 (UCH-L1) inhibitors. Bioorg Med Chem Lett. 2007; 17:3729-3732). […] Taken together, C527 is a pan-deubiquitinating enzyme inhibitor in vitro, though it has some specificity for the USP subfamily of DUBs, compared to the UCH subfamily.

In the case of `O=C1c2ccccc2C(=O)c2oc(-c3ccc(F)cc3)nc21` [Formula IV (527)], the “non-homologous end joining (NHEJ) activity” value [1] is reported as “did not inhibit”, the “Ub-VS labeling of endogenous DUBs (HA-labeling)” value [2] is reported as “failed to inhibit” and the “sensitization of cells to CPT” value (HeLa cells; then CPT 0.1 μM for 4 more days) is reported as “sensitized cells”. For the same compound, the “sensitization of cells to MMC” value (HeLa cells; then MMC 0.25 μM for 4 more days) was “sensitized cells”, the “sensitization of cells to etoposide” value (HeLa cells; then etoposide for 4 more days) was “not to etoposide” and the “IC50 compared with USP1/UAF1” value (USP12/UAF1/WDR20 complex; FIG. 6D) was “slightly higher”. The “DUB activity of the USP12/UAF1/WDR20 complex” value (USP12/UAF1/WDR20 complex; in vitro, FIG. 6A) was “inhibited” and the “inhibitory effect on UCH-L3” value (UCH-L3) was “considerably less inhibitory effect”.
